Source: PubChem BioAssay AID1963424 (Molecular Pharmacology Branch, DTP, NCI, 2024)

Test system: 327498-153-R-J2-PDC complex spheroid growth, % test/control
Assay: Anticancer human tumor 327498-153-R-J2-PDC patient-derived uterine carcinosarcoma cell line growth inhibition [Asc]
Details: for IC50: curve of first compound; for viability, T/C: stronger effect = lower value
Summary of the method: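 Tumor cells were grown as complex spheroids with human endothelial cells (HUVEC) and human mesenchymal stem cells as stroma. Agents were tested alone and in combination, in half-log steps down from the clinical Cmax, or from 10 microM where Cmax was unknown.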

[1] = second compound 0.1 µM, first compound 0.0316 µM
[2] = second compound 0.1 µM, first compound 0.1 µM
[3] = second compound 0.1 µM, first compound 0.316 µM
[4] = second compound 0.1 µM, first compound 1 µM
[5] = second compound 0.1 µM, first compound 3.16 µM
[6] = second compound 0.1 µM, first compound 10 µM
[7] = second compound 0.316 µM, first compound 0.0316 µM
[8] = second compound 0.316 µM, first compound 0.1 µM
[9] = second compound 0.316 µM, first compound 0.316 µM
[10] = second compound 0.316 µM, first compound 1 µM
[11] = second compound 0.316 µM, first compound 3.16 µM
[12] = second compound 0.316 µM, first compound 10 µM
[13] = second compound 1 µM, first compound 0.0316 µM
[14] = second compound 1 µM, first compound 0.1 µM
[15] = second compound 1 µM, first compound 0.316 µM
[16] = second compound 1 µM, first compound 1 µM
[17] = second compound 1 µM, first compound 3.16 µM
[18] = second compound 1 µM, first compound 10 µM
[19] = second compound 3.16 µM, first compound 0.0316 µM
[20] = second compound 3.16 µM, first compound 0.1 µM
[21] = second compound 3.16 µM, first compound 0.316 µM
[22] = second compound 3.16 µM, first compound 1 µM
[23] = second compound 3.16 µM, first compound 3.16 µM
[24] = second compound 3.16 µM, first compound 10 µM
[25] = second compound 10 µM, first compound 0.0316 µM
[26] = second compound 10 µM, first compound 0.1 µM
[27] = second compound 10 µM, first compound 0.316 µM
[28] = second compound 10 µM, first compound 1 µM
[29] = second compound 10 µM, first compound 3.16 µM
[30] = second compound 10 µM, first compound 10 µM
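Further: spheroids exposed to compound for 7 days after 3 days of growth.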
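Wherever viability, T/C is given: 100% = DMSO vehicle control wells.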

IC50 (second compound 0.1 µM) [nM]	IC50 (second compound 0.316 µM) [nM]	IC50 (second compound 1 µM) [nM]	IC50 (second compound 3.16 µM) [nM]	IC50 (second compound 10 µM) [nM]	SMILES	viability, T/C [1] [%]	viability, T/C [2] [%]	viability, T/C [3] [%]	viability, T/C [4] [%]	viability, T/C [5] [%]	viability, T/C [6] [%]	viability, T/C [7] [%]	viability, T/C [8] [%]	viability, T/C [9] [%]	viability, T/C [10] [%]	viability, T/C [11] [%]	viability, T/C [12] [%]	viability, T/C [13] [%]	viability, T/C [14] [%]	viability, T/C [15] [%]	further results
> 10000	5990	3180	5040	> 10000	C#Cc1c(F)ccc2cc(O)cc(-c3ncc4c(N5CC6CCC(C5)N6)nc(OCC56CCCN5CC(F)C6)nc4c3F)c12 (stereo not given) + Cc1c(S(C)(=O)=O)c(-c2cc(F)cc(N3CCN(c4ccc(NS(=O)(=O)c5ccc(NC(CCN6CCC(C(=O)OCCCP(=O)(O)O)CC6)CSc6ccccc6)c(S(=O)(=O)C(F)(F)F)c5)cc4)CC3)c2)c(-c2ccc(Cl)cc2)n1C(C)C	97.2	107	82.5	75.1	61.7	50.1	102	88.9	88.3	65.8	53.8	47.3	90.6	101	81	viability, T/C [16]: 71.1%; viability, T/C [17]: 47.9%; viability, T/C [18]: 43.8%; viability, T/C [19]: 96.6%; viability, T/C [20]: 87.5%; viability, T/C [21]: 70.8%; viability, T/C [22]: 69.7%; viability, T/C [23]: 51.4%; viability, T/C [24]: 44.4%; viability, T/C [25]: 166%; viability, T/C [26]: 165%; viability, T/C [27]: 150%; viability, T/C [28]: 145%; viability, T/C [29]: 133%; viability, T/C [30]: 86.6%
756	633	546	512	1590	C=C(F)C(=O)N1CCN(c2nc(OCC3CCCN3C)nc3c2CCN(c2cccc4cccc(Cl)c24)C3)CC1CC#N (stereo not given) + Cc1c(S(C)(=O)=O)c(-c2cc(F)cc(N3CCN(c4ccc(NS(=O)(=O)c5ccc(NC(CCN6CCC(C(=O)OCCCP(=O)(O)O)CC6)CSc6ccccc6)c(S(=O)(=O)C(F)(F)F)c5)cc4)CC3)c2)c(-c2ccc(Cl)cc2)n1C(C)C	63	57.9	62.2	46.4	5.7	0.14	66.6	63.4	56	43.6	3.41	0.12	63.9	58.5	55.9	viability, T/C [16]: 40.8%; viability, T/C [17]: 3.33%; viability, T/C [18]: 0.11%; viability, T/C [19]: 68.1%; viability, T/C [20]: 60.1%; viability, T/C [21]: 50.7%; viability, T/C [22]: 41.3%; viability, T/C [23]: 2.02%; viability, T/C [24]: 0.12%; viability, T/C [25]: 164%; viability, T/C [26]: 150%; viability, T/C [27]: 130%; viability, T/C [28]: 82%; viability, T/C [29]: 3.02%; viability, T/C [30]: 0.19%
